Source: patent publication US9663513B2, “Pyrimidine PDE10 inhibitors” (Merck Sharp & Dohme Corp., priority 2012, dated 2017)

Molecular target: human PDE10A2 (Homo sapiens (Human), UniProt Q9Y233)
Experiment: PDE10 fluorescence polarization (IMAP FP) inhibition assay
Assay type: biochemical
Conditions: human PDE10A2 from transfected AD293 cells; FAM-labeled cAMP 50 nM; apparent inhibition constant; read-out: PDE10A Ki
How it was run: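 Cytoplasmic lysate of AD293 cells transiently expressing human PDE10A2 (enzyme level giving 20% conversion) incubated with 50 nM FAM-cAMP in pH 7.2 Tris/MgCl2 buffer, 30 min at room temperature. IMAP binding solution added, FP read after ≥1 h; 10-point 3-fold compound titrations fitted to a four-parameter equation.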

Sequence of human PDE10A2 (Q9Y233 267-1055): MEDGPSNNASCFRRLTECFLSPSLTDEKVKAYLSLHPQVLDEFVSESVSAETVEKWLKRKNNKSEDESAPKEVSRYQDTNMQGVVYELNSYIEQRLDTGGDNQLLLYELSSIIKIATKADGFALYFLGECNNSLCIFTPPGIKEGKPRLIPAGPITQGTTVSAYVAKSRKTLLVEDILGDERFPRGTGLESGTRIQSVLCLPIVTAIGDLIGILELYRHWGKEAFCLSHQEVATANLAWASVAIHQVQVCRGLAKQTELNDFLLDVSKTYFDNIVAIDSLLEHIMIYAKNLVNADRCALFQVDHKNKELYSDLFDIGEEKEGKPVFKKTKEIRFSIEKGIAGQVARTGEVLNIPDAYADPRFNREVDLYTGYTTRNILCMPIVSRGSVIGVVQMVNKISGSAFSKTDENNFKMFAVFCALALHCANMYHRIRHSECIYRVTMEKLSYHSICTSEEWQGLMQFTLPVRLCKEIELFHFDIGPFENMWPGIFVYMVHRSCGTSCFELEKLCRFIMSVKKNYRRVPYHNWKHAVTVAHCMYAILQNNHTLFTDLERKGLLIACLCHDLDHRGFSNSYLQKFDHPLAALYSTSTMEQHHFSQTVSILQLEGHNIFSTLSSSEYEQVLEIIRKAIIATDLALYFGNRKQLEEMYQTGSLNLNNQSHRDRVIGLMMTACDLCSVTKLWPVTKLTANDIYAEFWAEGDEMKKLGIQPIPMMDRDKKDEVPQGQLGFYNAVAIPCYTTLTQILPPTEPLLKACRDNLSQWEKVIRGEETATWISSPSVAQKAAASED

SMILES | Ki [nM]
COc1ccc([C@H]2C[C@@H]2COc2nc(C)ncc2-c2cnc(CO)cn2)nc1 [Example 98, (5-(4-(((1S,2S)-2-(5-methoxypyridin-2-yl)cyclopropyl)methoxy)-2-methylpyrimidin-5-yl)pyrazin-2-yl)methanol] | 12
Cc1ccc([C@H]2C[C@@H]2COc2nc(C)ncc2C2CCC3(CC2)OCCO3)nc1 [Example 184, 2-methyl-4-(((1S,2S)-2-(5-methylpyridin-2-yl)cyclopropyl)methoxy)-5-(1,4-dioxaspiro[4.5]decan-8-yl)pyrimidine] | 2.81
Cc1ccc([C@H]2C[C@@H]2COc2nc(C)ncc2-c2cccc(OC(C)C)c2)nc1 [Example 3, 5-(3-isopropoxyphenyl)-2-methyl-4-(((1S,2S)-2-(5-methylpyridin-2-yl)cyclopropyl)methoxy)pyrimidine] | 0.3
COc1ccc([C@H]2C[C@@H]2COc2nc(C)ncc2-c2nnn(C)n2)nc1 [Example 235, 4-(((1S,2S)-2-(5-methoxypyridin-2-yl)cyclopropyl)methoxy)-2-methyl-5-(2-methyl-2H-tetrazol-5-yl)pyrimidine] | 21.5
COc1ccc([C@H]2C[C@@H]2COc2nc(C)ncc2-c2ccc(-c3nnnn3C(F)F)cc2)nc1 [Example 228, 5-(4-(1-(difluoromethyl)-1H-tetrazol-5-yl)phenyl)-4-(((1S,2S)-2-(5-methoxypyridin-2-yl)cyclopropyl)methoxy)-2-methylpyrimidine] | 2.06
COc1nncc(-c2cnc(C)nc2OC[C@H]2C[C@@H]2c2ccc(C)cn2)c1Cl [Example 52, 4-chloro-3-methoxy-5-(2-methyl-4-(((1S,2S)-2-(5-methylpyridin-2-yl)cyclopropyl)methoxy)pyrimidin-5-yl)pyridazine] | 2.36
Cc1ncc(-c2ccc(C(C)(C)O)nc2)c(OC[C@H]2C[C@@H]2c2ccc(C(F)(F)F)cn2)n1 [Example 183, 2-(5-(2-methyl-4-(((1S,2S)-2-(5-(trifluoromethyl)pyridin-2-yl)cyclopropyl)methoxy)pyrimidin-5-yl)pyridin-2-yl)propan-2-ol] | 13.5
Cc1ccc([C@H]2C[C@@H]2COc2nc(C)ncc2-c2cc(O)ccn2)nc1 [Example 53, 2-(2-methyl-4-(((1S,2S)-2-(5-methylpyridin-2-yl)cyclopropyl)methoxy)pyrimidin-5-yl)pyridin-4-ol] | 25.5
Cc1ccc([C@H]2C[C@@H]2COc2nc(C)ncc2C2CCC(F)(F)CC2)nc1 [Example 209, 5-(4,4-Difluorocyclohexyl)-2-methyl-4-(((1S,2S)-2-(5-methylpyridin-2-yl)cyclopropyl)methoxy)pyrimidine] | 12.1
Cc1ccnc([C@H]2C[C@@H]2COc2nc(C)ncc2C2CCC3(CC2)OCCO3)c1 [Example 201, 2-methyl-4-(((1S,2S)-2-(4-methylpyridin-2-yl)cyclopropyl)methoxy)-5-(1,4-dioxaspiro[4.5]decan-8-yl)pyrimidine] | 17.1
COc1ccc([C@H]2C[C@@H]2COc2nc(C)ncc2-c2ccc(C#N)cc2)nc1 [Example 171, 4-(4-(((1S,2S)-2-(5-methoxypyridin-2-yl)cyclopropyl)methoxy)-2-methylpyrimidin-5-yl)benzonitrile] | 1.19
Cc1ncc(-c2ccc(C(F)(F)F)nc2)c(OC[C@H]2C[C@@H]2c2ccccn2)n1 [Example 117, 2-methyl-4-(((1S,2S)-2-(pyridin-2-yl)cyclopropyl)methoxy)-5-(6-(trifluoromethyl)pyridin-3-yl)pyrimidine] | 23.5
Cc1ncc(C2(O)CCC3(CC2)OCCO3)c(OC[C@H]2C[C@@H]2c2ccc3ccccc3n2)n1 [Example 206, 8-(2-methyl-4-(((1S,2S)-2-(quinolin-2-yl)cyclopropyl)methoxy)pyrimidin-5-yl)-1,4-dioxaspiro[4.5]decan-8-ol] | 6.28
COc1ccc([C@H]2C[C@@H]2COc2nc(C)ncc2-c2ccnc(N)c2C#N)nc1 [Example 108, 2-amino-4-(4-(((1S,2S)-2 (5-methoxypyridin-2-yl)cyclopropyl)methoxy)-2-methylpyrimidin-5-yl)nicotinonitrile] | 3.75
Cc1ncc(C2CCC3(CC2)OCCO3)c(OC[C@H]2C[C@H]2c2ccccn2)n1 [Example 198, 2-methyl-4-(((1S,2R)-2-(pyridin-2-yl)cyclopropyl)methoxy)-5-(1,4-dioxaspiro[4.5]decan-8-yl)pyrimidine] | 27.6
COc1ccc([C@H]2C[C@@H]2COc2nc(C)ncc2-c2cnnn2C(F)F)nc1 [Example 246, 5-(3-(difluoromethyl)-3H-1,2,3-triazol-4-yl)-4-(((1S,2S)-2-(5-methoxypyridin-2-yl)cyclopropyl)methoxy)-2-methylpyrimidine] | 6.6
CCn1nnc(-c2ccc(-c3cnc(C)nc3OC[C@H]3C[C@@H]3c3ccc(OC)cn3)cc2)n1 [Example 225, 5-(4-(2-ethyl-2H-tetrazol-5-yl)phenyl)-4-(((1S,2S)-2-(5-methoxypyridin-2-yl)cyclopropyl)methoxy)-2-methylpyrimidine] | 1.42
CNC(=O)c1ccc(-c2cnc(C)nc2OC[C@H]2C[C@@H]2c2ccc(OC)cn2)cn1 [Example 103, 5-(4-(((1S,2S)-2-(5-methoxypyridin-2-yl)cyclopropyl)methoxy)-2-methylpyrimidin-5-yl)-N-methylpicolinamide] | 2.35

More lines, now with the values ahead:

Ki [nM] | SMILES
0.06 | Cc1ncc(C2CCC(=O)CC2)c(OC[C@H]2C[C@@H]2c2ccc3ccccc3n2)n1 [Example 191, 4-(2-methyl-4-(((1S,2S)-2-(quinolin-2-yl)cyclopropyl)methoxy)pyrimidin-5-yl)cyclohexanone]
0.64 | COc1ccc([C@H]2C[C@@H]2COc2nc(C)ncc2-c2ccc(C(=O)NCCO)nc2)nc1 [Example 106, N-(2-hydroxyethyl)-5-(4-(((1S,2S)-2-(5-methoxypyridin-2-yl)cyclopropyl)methoxy)-2-methylpyrimidin-5-yl)picolinamide]
0.81 | COc1cc(-c2cnc(C)nc2OC[C@H]2C[C@@H]2c2ccc(C)cn2)cc2nccn12 [Example 132, 5-methoxy-7-(2-methyl-4-(((1S,2S)-2-(5-methylpyridin-2-yl)cyclopropyl)methoxy)pyrimidin-5-yl)imidazo[1,2-a]pyridine]
0.1 | COc1ccc([C@H]2C[C@@H]2COc2nc(C)ncc2-c2ccc(-c3nn[nH]n3)cc2)nc1 [Example 222, 5-(4-(1H-tetrazol-5-yl)phenyl)-4-(((1S,2S)-2-(5-methoxypyridin-2-yl)cyclopropyl)methoxy)-2-methylpyrimidine]
0.93 | Cc1ncc(-c2ccncc2)c(OC[C@H]2C[C@@H]2c2ccc3ccccc3n2)n1 (single isomer, unassigned) [Example 27]
0.1 | COc1ccc(-c2cnc(C)nc2OC[C@H]2C[C@@H]2c2ccc3ccccc3n2)cc1 (single isomer, unassigned) [Example 28]
0.87 | Cc1ccc([C@H]2C[C@@H]2COc2nc(C)ncc2-c2cnc(C)cc2C)nc1 [Example 55, 5-(4,6-dimethylpyridin-3-yl)-2-methyl-4-(((1S,2S)-2-(5-methylpyridin-2-yl)cyclopropyl)methoxy)pyrimidine]
0.87 | Cc1ncc(-c2ccc(CO)cc2)c(OC[C@H]2C[C@@H]2c2ccc3ccccc3n2)n1 (single isomer, unassigned) [Example 39]
0.38 | Cc1ccnc([C@H]2C[C@@H]2COc2nc(C)ncc2-c2ccc(C(C)(C)O)nc2)c1 (single isomer, unassigned) [Example 177]
0.33 | COc1ccc([C@H]2C[C@@H]2COc2nc(C)ncc2-c2ccnc(F)c2)nc1 [Example 21, 5-(2-fluoropyridin-4-yl)-4-(((1S,2S)-2-(5-methoxypyridin-2-yl)cyclopropyl)methoxy)-2-methylpyrimidine]
0.37 | Cc1ccc([C@H]2C[C@@H]2COc2nc(C)ncc2-c2cnc3[nH]ncc3c2)nc1 [Example 142, 5-(2-methyl-4-(((1S,2S)-2-(5-methylpyridin-2-yl)cyclopropyl)methoxy)pyrimidin-5-yl)-1H-pyrazolo[3,4-b]pyridine]
0.04 | CCOc1cccc(-c2cnc(C)nc2OC[C@H]2C[C@@H]2c2ccc3ccccc3n2)c1 (single isomer, unassigned) [Example 40, 2,2,2-trifluoroacetate]
0.79 | COc1ccc([C@H]2C[C@@H]2COc2nc(C)ncc2-c2cc(Cl)ncc2OC)nc1 [Example 111, 5-(2-chloro-5-methoxypyridin-4-yl)-4-(((1S,2S)-2-(5-methoxypyridin-2-yl)cyclopropyl)methoxy)-2-methylpyrimidine]
1.05 | Cc1ncc(-c2ccc(C(C)O)cc2)c(OC[C@H]2C[C@@H]2c2ccc3ccccc3n2)n1 (single isomer, unassigned) [Example 35]
1.13 | COc1ccc([C@H]2C[C@@H]2COc2nc(C)ncc2-c2cnsc2)nc1 [Example 73, 4-(4-(((1S,2S)-2-(5-methoxypyridin-2-yl)cyclopropyl)methoxy)-2-methylpyrimidin-5-yl)isothiazole]
0.73 | CCC(O)c1ccc(-c2cnc(C)nc2OC[C@H]2C[C@@H]2c2ccc(C)cn2)cn1 (stereo partly drawn) [Example 144, 1-(5-(2-methyl-4-(((1S,2S)-2-(5-methylpyridin-2-yl)cyclopropyl)methoxy)pyrimidin-5-yl)pyridin-2-yl)propan-1-ol]
1.16 | CCn1nnnc1-c1ccc(-c2cnc(C)nc2OC[C@H]2C[C@@H]2c2ccc(OC)cn2)cn1 [Example 233, 5-(6-(1-ethyl-1H-tetrazol-5-yl)pyridin-3-yl)-4-(((1S,2S)-2-(5-methoxypyridin-2-yl)cyclopropyl)methoxy)-2-methylpyrimidine]
0.93 | COc1ccc([C@H]2C[C@@H]2COc2nc(C)ncc2-c2cn(C)nc2C(O)C(F)(F)F)nc1 (stereo partly drawn) [Example 114, 2,2,2-trifluoro-1-(4-(4-(((1S,2S)-2-(5-methoxypyridin-2-yl)cyclopropyl)methoxy)-2-methylpyrimidin-5-yl)-1-methyl-1H-pyrazol-3-yl)ethanol]
